Data reported in patent publication US11744896B2, “Compositions, use, and method for CDK2-PROTACs for cancer therapy and hearing loss” (Creighton University, priority 2020, dated 2023).
Entries after “also recorded” stand apart in the source; their conditions may differ. Read-outs that look alike come from different tables or passages of the source.

Experiments:
[1] = system: cisplatin-induced hearing loss; conditions: mouse; previous work; cited from earlier work
[2] = system: zebrafish lateral line neuromast hair cells; assay: Zebrafish neuromast hair cell protection from cisplatin; assay type: in vivo; conditions: for protection of zebrafish lateral line neuromast hair cells from cisplatin toxicity: pre-incubation, then co-incubation with cisplatin for 6 hours
From the text: (§1) Four days post-fertilization (dpf) zebrafish (Danio rerio) larvae were obtained by pair mating of adult TuAB fish maintained at Creighton University by standard methods approved by the Institutional Animal Care and Use Committee.
Animals were immunostained for the hair cell marker, otoferlin (HCS-1, DSHB), and process for fluorescence microscopy. Otic, middle, and opercular neuromasts were identified, and hair cells were manually counted using a Zeiss AxioSkop 2 fluorescence microscope with a 40× oil objective.
(§2) Control animals were exposed to 0.1% DMSO in E3 media. Images were taken employing a Zeiss LSM 710 confocal microscope with a 63× oil objective.
(§3) For the screening of the effect of PROTAC-8, neuromast hair cell counts were performed manually, employing a Zeiss AxioSkop 2 fluorescence microscope with a 40× oil objective. Confocal imaging was performed using a Zeiss LSM 710 confocal laser scanning image system with a 63× oil objective. Images were captured at room temperature with automatically set sectioning. The acquired images were processed with ZEN black edition software. Z-stack images are presented as flat Z-projections.

cochlear explants = conditions: cited from earlier work
CDK2 [3] = assay: CDK2 abundance in total zebrafish lysates (immunoblot); assay type: in vivo, zebrafish (Danio rerio); conditions: at concentrations of 0.1 nM and 1 μM
Protocol: (§4) The next day fish were transferred to a fresh solution of kainic acid 300 μM for 50 min, led recover in fresh E3 media for 2 hours, and fixed with 4% paraformaldehyde. Animals were processed for immunofluorescence analysis as described for the cisplatin treatments. After the 24 hours incubation with PROTAC-8 and before the incubation with the ototoxin, some fish were collected for immunoblot analysis of CDK2 abundance.
(§5) Specific bands were quantified using ImageJ (NIH).
Further to find the effect of AZD5438-PROTAC 8 (Example 2) in protecting zebrafish hair cells from cisplatin otoxicity, zebrafish were pre-incubated with AZD5438-PROTAC 8 and then co-incubated with cisplatin for six hours. […] To check the degradation of CDK2 in zebrafish, fish were treated with AZD5438-PROTAC 8 in different concentration and total zebrafish lysates used for immunoblots (FIG. 12B). AZD5438-PROTAC 8 degrades CDK2 at concentrations of 0.1 nM and 1 μM (FIGS. 12B-12C).

[4] = system: zebrafish lateral line neuromast hair cells; conditions: zebrafish lateral line neuromasts, background statement, cited from earlier work
neuromast hair cells = assay: Zebrafish neuromast hair cell protection from kainic acid; assay type: in vivo, zebrafish (Danio rerio); conditions: kainic acid 300 μM for 50 min after pre-treatment
Protocol: as §1, with “Committee. Experimental fish were maintained at 28.5° C. in E3 media (5 mM NaCl, 0.17 mM KCl, 0.33 mM CaCl2 and […] MgSO4, pH 7.2) until the day of the experiment.” for “Committee.”
as §4, §2
as §3, with “Z-stack images are presented as flat Z-projections.” left out

CDK2 [5] = target: CDK2 (Mus musculus, UniProt P97377); conditions: HEI-OC1 cells; for CDK2 degradation (immunoblot): 0.1 nM to 1 μM
Protocol: HEI-OC1 cells were maintained in DMEM with 10% of Fetal bovine serum at 33° C. in a 10% CO2 atmosphere. […] Cells were harvested in RIPA buffer (NaCl 150 mM, Tris-HCl 50 mM, Nonidet-40 1%, Sodium deoxycholate 0.5%, SDS 0.1%, pH 7.4) containing protease (Sigma-Aldrich, MO P8340) and phosphatase inhibitors (ThermoFisher, CA, A32957) for immunoblot analysis.
Lysates were prepared after a 24 hours incubation and processed for Western blot analysis.
Membranes were blocked for 1 hour at room temperature with 3% milk followed by overnight incubation with the primary antibody in 3% milk. After several washes and the secondary incubation for 1 hour, membranes were developed employing an iBright FL1000 (ThermoFisher, CA). Immunoblots were stripped and probed for β-actin as the loading control. Specific bands were quantified using ImageJ (NIH).

CDK1, CDK5, CDK7 or CDK9 = assay: Abundance of closely related CDKs in HEI-OC1 cells (immunoblot); assay type: cell-based; conditions: 24 hours
From the text: as §5

CDK2 [6] = target: T1, CDK2 (Homo sapiens, UniProt P24941); assay: CDK2 degradation in HeLa cell line (immunoblot); assay type: cell-based; conditions: HeLa cells incubated overnight, different concentrations
T1 construct: endogenous in cells; host or cells: HeLa
Protocol: (§6) To test the efficacy of the synthesized AZD5438-PROTACs, HeLa cells were incubated overnight with different concentrations of AZD5438-PROTAC Examples 1, 2, 5, and 6.

CDK9 = target: T2, CDK9 (Homo sapiens, UniProt P50750); assay: CDK9 degradation in HeLa cell line (immunoblot); assay type: cell-based; conditions: HeLa cells incubated overnight
T2 construct: endogenous in cells; host or cells: HeLa
T2 sequence (P50750 whole entry): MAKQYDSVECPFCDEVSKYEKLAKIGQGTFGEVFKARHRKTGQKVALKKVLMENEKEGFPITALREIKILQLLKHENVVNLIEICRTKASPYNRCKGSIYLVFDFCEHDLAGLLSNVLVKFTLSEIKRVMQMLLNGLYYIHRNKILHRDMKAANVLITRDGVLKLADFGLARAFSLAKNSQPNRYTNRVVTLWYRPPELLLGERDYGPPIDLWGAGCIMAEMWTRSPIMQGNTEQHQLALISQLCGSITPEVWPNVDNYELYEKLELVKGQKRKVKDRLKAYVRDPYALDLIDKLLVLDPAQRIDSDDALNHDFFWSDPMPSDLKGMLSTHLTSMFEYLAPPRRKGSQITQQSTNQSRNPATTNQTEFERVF
Protocol: as §6

CDK1 = target: T3, CDK1 (Homo sapiens, UniProt P06493); assay: CDK1 degradation in HeLa cell line (immunoblot); assay type: cell-based; conditions: HeLa cells incubated overnight
T3 construct: endogenous in cells; host or cells: HeLa
T3 sequence (P06493 whole entry): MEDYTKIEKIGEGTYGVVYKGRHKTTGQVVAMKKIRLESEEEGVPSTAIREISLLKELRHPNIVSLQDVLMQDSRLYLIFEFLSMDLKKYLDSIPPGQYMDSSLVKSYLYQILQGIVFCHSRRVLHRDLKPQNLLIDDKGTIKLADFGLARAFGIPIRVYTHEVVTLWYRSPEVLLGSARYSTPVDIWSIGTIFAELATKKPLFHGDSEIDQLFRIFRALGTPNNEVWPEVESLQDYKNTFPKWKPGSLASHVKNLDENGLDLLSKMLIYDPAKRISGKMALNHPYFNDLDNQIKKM
Protocol: as §6

O=C(NC1CCNCC1)c1n[nH]cc1NC(=O)c1c(Cl)cccc1Cl [AT7519]
protection against cisplatin-induced ototoxicity / hearing loss in vivo [1]: can prevent cisplatin-induced ototoxicity in vivo

Cc1ncc(-c2ccnc(Nc3ccc(S(C)(=O)=O)cc3)n2)n1C(C)C [AZD5438]
protection of zebrafish lateral line neuromast hair cells from cisplatin toxicity [2]: able to protect the zebrafish lateral line neuromasts from cisplatin and kainic acid damage
IC50 (cochlear explants; cochlear explants, cisplatin, read-out: IC50, protection against cisplatin toxicity in cochlear explants): 5 nM
protection against cisplatin-induced ototoxicity in mouse cochlear explants (cochlear explants; previous study): best protection against cisplatin-induced ototoxicity
CDK2 degradation in zebrafish (CDK2 [3]): without CDK2 degradation
protection of zebrafish lateral line against cisplatin ototoxicity (earlier studies) [4]: hair cell loss was reduced
protection of zebrafish lateral line against cisplatin ototoxicity (earlier studies) ([4]; listed as ACD5438): protects zebrafish lateral line against cisplatin ototoxicity
protection of neuromast hair cells from kainic acid damage (neuromast hair cells): able to protect the zebrafish lateral line neuromasts from cisplatin and kainic acid damage
protection against cisplatin-induced ototoxicity / hearing loss in vivo [1]: best protection against cisplatin-induced ototoxicity; also recorded: fully protects against cisplatin-induce hearing loss in mice by local delivery; also recorded: can prevent cisplatin-induced ototoxicity in vivo; also recorded: hair cell loss was reduced

Cc1ncc(-c2ccnc(Nc3ccc(S(=O)(=O)CCCc4cn(CCOCCOCCOCCNc5cccc6c5C(=O)N(C5CCC(=O)NC5=O)C6=O)nn4)cc3)n2)n1C(C)C (centres unmarked) [Example 1, 2-(2,6-dioxopiperidin-3-yl)-4-((2-(2-(2-(2-(4-(3-((4-((4-(1-isopropyl-2-methyl-1H-imidazol-5-yl)pyrimidin-2-yl)amino)phenyl)sulfonyl)propyl)-1H-1,2,3-triazol-1-yl)ethoxy)ethoxy)ethoxy)ethyl)amino)isoindoline-1,3-dione]
CDK2 degradation (immunoblot) (CDK2 [5]; 24 hours): did not show any CDK2 degradation
degradation / abundance of closely related CDKs (CDK1, CDK5, CDK7, CDK9); selectivity (CDK1, CDK5, CDK7 or CDK9): nor changes in the abundance of any of the closely related CDKs
CDK2 degradation (immunoblot) (CDK2 [6]): only the treatment with AZD5438-PROTAC-8 resulted in the degradation of CDK2

Cc1ncsc1-c1ccc(CNC(=O)[C@@H]2C[C@@H](O)CN2C(=O)[C@@H](NC(=O)COCCn2cc(CCCS(=O)(=O)c3ccc(Nc4nccc(-c5cnc(C)n5C(C)C)n4)cc3)nn2)C(C)(C)C)cc1 [Example 2, (2S,4R)-4-hydroxy-1-((S)-2-(2-(2-(4-(3-((4-((4-(1-isopropyl-2-methyl-1H-imidazol-5-yl)pyrimidin-2-yl)amino)phenyl)sulfonyl)propyl)-1H-1,2,3-triazol-1-yl)ethoxy)acetamido)-3,3-dimethylbutanoyl)-N-(4-(4-methylthiazol-5-yl)benzyl)pyrrolidine-2-carboxamide]
CDK2 degradation on co-incubation with proteasome inhibitor MG-132 (CDK2 [5]; 100 nM PROTAC-8 and 300 nM MG-132, 24 hours): abolished CDK2 degradation
CDK2 degradation (CDK2 [5]; 24 hours, 100 nM concentration): around 50%
DC50 (CDK2 [5]; read-out: half maximal degradation concentration (DC50), CDK2 degradation): > 1000 nM
CDK9 degradation (immunoblot) (CDK9): No significant degradation
protection of zebrafish hair cells from cisplatin ototoxicity (FIG. 11A) ([2]; five-day post-fertilization fish, 1 hour pre-incubation, 6 hours co-incubation with cisplatin 400 μM): protects zebrafish hair cells from cisplatin otoxicity
protection of zebrafish lateral line neuromast hair cells from cisplatin toxicity ([2]; listed as AZD5438-PROTAC 8): significantly protects the zebrafish lateral line neuromasts from cisplatin toxicity
protection of zebrafish lateral line neuromast hair cells from cisplatin toxicity ([2]; listed as PROTAC-8): able to protect the zebrafish lateral line neuromasts from cisplatin and kainic acid damage
toxic effect of PROTAC alone on neuromast hair cells ([2]; zebrafish, without cisplatin (FIG. 11A)): did not show any toxic effect
degradation / abundance of closely related CDKs (CDK1, CDK5, CDK7, CDK9); selectivity (CDK1, CDK5, CDK7 or CDK9): selective for CDK2 degradation
CDK2 degradation in zebrafish (CDK2 [3]): degrades CDK2
CDK1 degradation (immunoblot) (CDK1): No significant degradation
CDK2 degradation (immunoblot) (CDK2 [6]): resulted in the degradation of CDK2
protection of neuromast hair cells from kainic acid damage (neuromast hair cells): able to protect the zebrafish lateral line neuromasts from cisplatin and kainic acid damage

O=C1CCC(N2C(=O)c3cccc(NCCOCCOCCOCCn4cc(CO[C@H]5CC[C@H](NC(=O)c6n[nH]cc6NC(=O)c6c(F)cccc6F)CC5)nn4)c3C2=O)C(=O)N1 (some centres unmarked) [Example 3, 4-(2,6-difluorobenzamido)-N-((1r,4r)-4-((1-(2-(2-(2-(2-((2-(2,6-dioxopiperidin-3-yl)-1,3-dioxoisoindolin-4-yl)amino)ethoxy)ethoxy)ethoxy)ethyl)-1H-1,2,3-triazol-4-yl)methoxy)cyclohexyl)-1H-pyrazole-3-carboxamide]
CDK2 degradation (immunoblot) (CDK2 [5]; 24 hours): did not show any CDK2 degradation
degradation / abundance of closely related CDKs (CDK1, CDK5, CDK7, CDK9); selectivity (CDK1, CDK5, CDK7 or CDK9): nor changes in the abundance of any of the closely related CDKs

Cc1ncsc1-c1ccc(CNC(=O)[C@@H]2C[C@@H](O)CN2C(=O)[C@@H](NC(=O)COCCn2cc(CO[C@H]3CC[C@H](NC(=O)c4n[nH]cc4NC(=O)c4c(F)cccc4F)CC3)nn2)C(C)(C)C)cc1 [Example 4, 4-(2,6-difluorobenzamido)-N-((1S,4r)-4-((1-(2-(2-(((S)-1-((2S,4R)-4-hydroxy-2-((4-(4-methylthiazol-5-yl)benzyl)carbamoyl)pyrrolidin-1-yl)-3,3-dimethyl-1-oxobutan-2-yl)amino)-2-oxoethoxy)ethyl)-1H-1,2,3-triazol-4-yl)methoxy)cyclohexyl)-1H-pyrazole-3-carboxamide]
CDK2 degradation (immunoblot) (CDK2 [5]; 24 hours): did not show any CDK2 degradation
degradation / abundance of closely related CDKs (CDK1, CDK5, CDK7, CDK9); selectivity (CDK1, CDK5, CDK7 or CDK9): nor changes in the abundance of any of the closely related CDKs
